Measured values published in ChEMBL document CHEMBL5356986, “Research status of indole-modified natural products” (RSC Med Chem, 2023).
Values after ≈ are worked out from the molar mass of the structure shown.

Columns and labels:
Toxoplasma gondii [1] = experiment: Antiparasitic activity against Toxoplasma gondii tachyzoites infected in human HeLa cells measured after 24 hrs by MTT assay; type: functional, organism-based
A549 [2] = experiment: Antiproliferative activity against human A549 cells assessed as reduction in cell viability by MTT assay; type: functional, cell-based
MCF7 [3] = experiment: Cytotoxicity against human MCF7 cells assessed as reduction in cell viability after 48 hrs by SRB assay; type: functional, cell-based; conditions: MCF7, 48 h
A549 [4] = experiment: Cytotoxicity against human A549 cells assessed as reduction in cell viability by MTS assay; type: functional, cell-based
HOP-92 = experiment: Growth inhibition against human HOP-92 cells incubated for 48 hrs by sulforhodamine B assay; type: functional
Toxoplasma gondii [5] = experiment: Antiparasitic activity against Toxoplasma gondii tachyzoites infected in human HeLa cells; type: functional, organism-based; conditions: Toxoplasma gondii, HeLa
HeLa [6] = experiment: Antiproliferative activity against human HeLa cells assessed as inhibition of cell growth incubated for 72 hrs by MTT assay; type: functional, cell-based
[7] = system: Trichophyton mentagrophytes; experiment: Antifungal activity against Trichophyton mentagrophytes assessed as inhibition of fungal growth incubated for 48 hrs by serial plate dilution method; type: functional
[8] = system: Trichophyton mentagrophytes; experiment: Antifungal activity against Trichophyton mentagrophytes assessed as inhibition of microbial growth; type: functional
Nannizzia gypsea = experiment: Antifungal activity against Microsporum gypseum assessed as fungal growth inhibition; type: functional
Caco-2 = experiment: Antiproliferative activity against human Caco-2 cells incubated for 96 hrs by MTT assay; type: functional, cell-based; conditions: Caco-2, 96 h
MDA-MB-453 = experiment: Antiproliferative activity against human MDA-MB-453 cells assessed as inhibition of cell growth incubated for 48 hrs by MTT assay; type: functional, cell-based; conditions: MDA-MB-453, 48 h
MCF7 [9] = experiment: Antiproliferative activity against human MCF7 cells assessed as inhibition of cell growth by CCK8 assay; type: functional, cell-based
MDA-MB-231 = experiment: Antiproliferative activity against human MDA-MB-231 cells assessed as reduction in cell viability incubated for 48 hrs by MTT assay; type: functional, cell-based; conditions: MDA-MB-231, 48 h
Arthrodermataceae = experiment: Antibacterial activity against Arthrodermataceae; type: functional
Mu-type opioid receptor = Mu-type opioid receptor (Homo sapiens, UniProt P35372); experiment: Inhibition of mu opioid receptor (unknown origin)
HCT-116 [10] = experiment: Antiproliferative activity against human HCT-116 cells assessed as inhibition of cell growth; type: functional, cell-based
A549 [11] = experiment: Antiproliferative activity against human A549 cells assessed as reduction in cell viability incubated for 48 hrs by MTT assay; type: functional, cell-based; conditions: A549, 48 h
A549 [12] = experiment: Antiproliferative activity against human A549 cells assessed as reduction in cell growth incubated for 72 hrs by MTT assay; type: functional, cell-based; conditions: A549, 72 h
HeLa [13] = experiment: Antiproliferative activity against human HeLa cells assessed as reduction in cell growth; type: functional, cell-based
K562 = experiment: Antiproliferative activity against human K562 cells assessed as cell growth inhibition by MTT assay; type: functional, cell-based
MCF7 [14] = experiment: Antiproliferative activity against human MCF7 cells assessed as reduction in cell viability incubated for 120 hrs by MTT assay; type: functional, cell-based; conditions: MCF7, 120 h
HepG2 [15] = experiment: Antiproliferative activity against human HepG2 cells assessed as reduction in cell viability incubated for 48 hrs by MTT assay; type: functional, cell-based; conditions: HepG2, 48 h
HeLa [16] = experiment: Cytotoxicity against human HeLa cells assessed as cell growth inhibition incubated for 24 hrs by MTT assay; type: functional, cell-based
MCF7 [17] = experiment: Cytotoxicity against human MCF7 cells assessed as reduction in cell viability by MTS assay; type: functional, cell-based
Bel-7402 = experiment: Cytotoxicity against human Bel-7402 cells assessed as reduction in cell viability; type: functional, cell-based
HCT-116 [18] = experiment: Cytotoxicity against human HCT-116 cells assessed as reduction in cell viability by MTS assay; type: functional, cell-based
[19] = molecular target: Tyrosine-protein phosphatase non-receptor type 1 (Homo sapiens, UniProt P18031); experiment: Inhibition of Protein tyrosine phosphatase 1B (unknown origin)
[20] = system: Mycobacterium tuberculosis; experiment: Antimycobacterial activity against Mycobacterium tuberculosis H37Rv assessed as reduction in bacterial cell growth; type: functional
HepG2 [21] = experiment: Cytotoxicity against human HepG2 cells by MTT assay; type: functional, cell-based
SGC-7901 = experiment: Cytotoxicity against human SGC-7901 cells assessed as reduction in cell viability measured after 48 hrs by MTT colorimetric assay; type: functional, cell-based; conditions: SGC-7901, 48 h
HepG2 [22] = experiment: Cytotoxicity against human HepG2 cells assessed as cell growth inhibition; type: functional, cell-based
HepG2 [23] = experiment: Cytotoxicity against human HepG2 cells assessed as reduction in cell viability measured after 48 hrs by MTT colorimetric based assay; type: functional; conditions: HepG2, 48 h
Alpha glucosidase = Alpha glucosidase (Homo sapiens, UniProt O43451+P10253+P14410+Q2M2H8); experiment: Inhibition of Alpha-glucosidase (unknown origin) using p-nitrophenyl glucopyranoside as substrate by UV based microplate reader analysis; type: protein assay

Sequence of Mu-type opioid receptor (P35372 whole entry): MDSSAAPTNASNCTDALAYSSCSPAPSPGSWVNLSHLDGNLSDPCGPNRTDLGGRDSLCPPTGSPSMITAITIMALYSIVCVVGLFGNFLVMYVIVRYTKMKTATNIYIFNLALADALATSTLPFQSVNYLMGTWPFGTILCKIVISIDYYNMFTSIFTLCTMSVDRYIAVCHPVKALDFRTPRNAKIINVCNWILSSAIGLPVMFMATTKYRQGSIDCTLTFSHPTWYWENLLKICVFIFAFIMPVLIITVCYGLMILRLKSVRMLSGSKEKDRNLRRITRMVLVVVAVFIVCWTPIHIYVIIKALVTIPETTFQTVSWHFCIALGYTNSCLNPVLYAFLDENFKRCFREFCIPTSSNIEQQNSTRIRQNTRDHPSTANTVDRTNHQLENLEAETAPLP
Sequence of Tyrosine-protein phosphatase non-receptor type 1 (P18031 whole entry): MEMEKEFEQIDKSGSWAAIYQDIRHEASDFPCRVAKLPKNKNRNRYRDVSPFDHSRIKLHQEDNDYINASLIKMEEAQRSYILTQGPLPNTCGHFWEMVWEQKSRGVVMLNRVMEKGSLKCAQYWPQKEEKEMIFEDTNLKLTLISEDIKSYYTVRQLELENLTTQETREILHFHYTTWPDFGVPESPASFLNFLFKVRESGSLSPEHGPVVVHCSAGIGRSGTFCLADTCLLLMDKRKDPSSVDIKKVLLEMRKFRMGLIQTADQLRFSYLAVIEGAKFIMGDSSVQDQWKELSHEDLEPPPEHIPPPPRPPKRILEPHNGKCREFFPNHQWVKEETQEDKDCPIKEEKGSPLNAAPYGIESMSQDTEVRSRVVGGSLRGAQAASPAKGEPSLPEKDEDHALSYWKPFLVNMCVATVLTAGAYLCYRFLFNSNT

**Q.** For C[C@@H]1CC[C@H]2[C@@H](C)C(OC(=O)c3cc4cc(Cl)ccc4[nH]3)O[C@@H]3O[C@@]4(C)CC[C@@H]1[C@]32OO4 (stereo not given in full), which IC50 (Toxoplasma gondii [1]) is on record?
**A.** Its IC50 is 85.3 µM.

**Q.** What about the IC50 (A549 [2]) of the same compound?
**A.** Its IC50 is 6.17 µM.

**Q.** And the IC50 (MCF7 [3])?
**A.** The IC50 was 5.25 µM.

**Q.** With CC(C)=CCC[C@](C)(O)[C@H]1CC[C@@](C)([C@H]2CC[C@H]3[C@H]2CC[C@H]2C(C)(C)c4[nH]c5ccc(Br)cc5c4C[C@]32C)O1 as the compound, how does the IC50 (A549 [4]) read?
**A.** Its IC50 is 13.4 µM.

**Q.** How did the GI50 (HOP-92) turn out when Cc1cc(=O)oc2c(C)c(O)c(-c3cc4ccc(F)cc4[nH]3)cc12 was run?
**A.** The GI50 was 0.95 µM.

**Q.** COc1cc(C(=O)/C=C/c2c[nH]c3ccccc23)cc([Se]C)c1OC was tested. Which IC50 (Toxoplasma gondii [5]) did it give?
**A.** The IC50 was 0.023 µM.

**Q.** What about the IC50 (HeLa [6]) of the same compound?
**A.** The IC50 was 0.059 µM.

**Q.** How did the MIC [7] turn out when CCOc1c(Br)cc(/C=C/C(=O)c2c[nH]c3ccccc23)cc1OC was run?
**A.** Its MIC is 2 mg/L (≈ 5 µM).

**Q.** What about the MIC [8] of the same compound?
**A.** The MIC was 4 mg/L.

**Q.** What about the MIC (Nannizzia gypsea) of the same compound?
**A.** Its MIC is 0.25 mg/L (≈ 0.625 µM).

**Q.** With COc1cc(/C=C/C(=O)/C=C/c2c[nH]c3ccccc23)ccc1O as the compound, how does the IC50 (Caco-2) read?
**A.** Its IC50 is 8 µM.

**Q.** Which results are given for C[C@]12CC[C@H]3[C@@H](CC=C4C[C@@H](O)CC[C@@H]43)[C@@H]1CC/C2=N\N=C\c1c[nH]c2ccccc12?
**A.** IC50 (MDA-MB-453): 0.01 µM; IC50 (MCF7 [9]): 1.06 µM; IC50 (MDA-MB-231): 0.00481 µM

**Q.** With COc1ccc(/C=C/C(=O)c2cn(C)c3ccccc23)cc1 as the compound, how does the MIC (Arthrodermataceae) read?
**A.** The MIC was 4 mg/L (≈ 13.7 µM).

**Q.** And the MIC [8]?
**A.** Its MIC is 8 mg/L.

**Q.** And the MIC (Nannizzia gypsea)?
**A.** Its MIC is 1 mg/L (≈ 3.43 µM).

**Q.** With O=C(N[C@@H]1CC[C@@]2(O)[C@H]3Cc4ccc(O)c5c4[C@@]2(CCN3CC2CC2)[C@H]1O5)c1cc2ccccc2[nH]1 as the compound, how does the IC50 (Mu-type opioid receptor) read?
**A.** Its IC50 is 0.00021 µM.

**Q.** How did the IC50 (HCT-116 [10]) turn out when COc1cc(C(=O)/C(C)=C/c2c[nH]c3cc(F)ccc23)cc(OC)c1OCCN was run?
**A.** The IC50 was 0.0032 µM.

**Q.** With COc1cc([C@@H]2c3cc4c(cc3[C@@H](O[C@@H]3O[C@@H]5CO[C@@H](C)O[C@H]5[C@H](O)[C@H]3O)[C@H]3COC(=O)[C@H]23)OCO4)cc(OC)c1O [ETOPOSIDE] as the compound, how does the IC50 (A549 [11]) read?
**A.** The IC50 was 2.27 µM.

**Q.** And the IC50 (A549 [12])?
**A.** The IC50 was 9.9 µM.

**Q.** What about the IC50 (HeLa [13]) of the same compound?
**A.** The IC50 was 2.56 µM.

**Q.** What about the IC50 (K562) of the same compound?
**A.** The IC50 was 1.72 µM.

**Q.** And the IC50 (MCF7 [14])?
**A.** Its IC50 is 2.56 µM.

**Q.** CC(C)[C@@H](C)/C=C/[C@@H](C)[C@H]1CC[C@@H]2[C@]1(C)CC[C@H]1[C@]23C=C[C@]2(C[C@@H](O)CC[C@]12C)OO3 [ERGOSTEROL PEROXIDE] was tested. Which IC50 (MCF7 [9]) did it give?
**A.** The IC50 was 18 µM.

**Q.** And the IC50 (HepG2 [15])?
**A.** The IC50 was 23.4 µM.

**Q.** What about the IC50 (HeLa [16]) of the same compound?
**A.** Its IC50 is 19.5 µM.

**Q.** For C=C1C(=O)[C@]23[C@H](OC(=O)c4cc5cc(OC)ccc5[nH]4)[C@H]1CC[C@H]2[C@@]12COC3(O)[C@@H](O)[C@@H]1C(C)(C)CC[C@@H]2O (single isomer, unassigned), which IC50 (MCF7 [17]) is on record?
**A.** The IC50 was 0.39 µM.

**Q.** And the IC50 (Bel-7402)?
**A.** Its IC50 is 0.83 µM.

**Q.** And the IC50 (HCT-116 [18])?
**A.** The IC50 was 0.81 µM.

**Q.** For CC1(C)c2[nH]c3ccc(C(F)(F)F)cc3c2C[C@]2(C)[C@H]3C(=O)C=C4[C@@H]5C[C@@](C)(C(=O)O)CC[C@]5(C)CC[C@@]4(C)[C@]3(C)CC[C@@H]12, which IC50 [19] is on record?
**A.** The IC50 was 4.3 µM.

**Q.** How did the MIC [20] turn out when O=C(c1ccncc1)n1nc(-c2c[nH]c3ccccc23)cc1-c1cc2ccccc2oc1=O was run?
**A.** The MIC was 2.02 µM (≈ 0.874 µg/mL).

**Q.** For CC(=O)Oc1ccc(C(=O)/C=C/c2ccc3c(ccn3C)c2)c2c1C=CC(C)(C)O2, which IC50 (HepG2 [21]) is on record?
**A.** The IC50 was 0.22 µM.

**Q.** CC(C)COC(=O)[C@]12CC[C@@H](C)[C@H](C)[C@H]1C1=CC(=O)[C@@H]3[C@@]4(C)Cc5c([nH]c6ccc(Cl)cc56)C(C)(C)[C@@H]4CC[C@@]3(C)[C@]1(C)CC2 was tested. Which IC50 (SGC-7901) did it give?
**A.** The IC50 was 3.12 µM.

**Q.** And the IC50 (HepG2 [22])?
**A.** Its IC50 is 3.12 µM.

**Q.** What about the IC50 (HepG2 [23]) of the same compound?
**A.** The IC50 was 3.12 µM.

**Q.** Which IC50 (MDA-MB-453) does the source give for C[C@]12CC[C@H](OC(=O)[C@H](N)c3c[nH]c4ccccc34)C[C@H]1CC[C@@H]1[C@@H]2[C@H](N)C(=O)[C@]2(C)[C@@H](c3ccc(=O)oc3)CC[C@]12O here?
**A.** Its IC50 is 0.0106 µM.

**Q.** And the IC50 (MCF7 [9])?
**A.** The IC50 was 11.6 µM.

**Q.** What about the IC50 (MDA-MB-231) of the same compound?
**A.** Its IC50 is 0.027 µM.

**Q.** For C=C(C)[C@@H](C)CC[C@@H](C)C1CC[C@@]2(C)[C@@H]3CC[C@H]4[C@H](C)c5[nH]c6ccccc6c5C[C@@]45C[C@@]35CC[C@]12C (stereo not given in full), which IC50 (Alpha glucosidase) is on record?
**A.** Its IC50 is 115.2 µM.
